# Measured values: patent US6890720B1, “Antigens derived from filaggrin and their use for diagnosing rheumatoid polyarthritis” (Biomerieux, priority 1996, dated 2005)
# Square brackets hold non-standard residues; d marks the D form. Cit = NC(=O)NCCC[C@H](N)C(=O)O
# B1: fil-gst: recombinant human filaggrin unit fused with glutathione S-transferase (GST), expressed in E. coli (protein)
# chain: QSESAHGRTGTSTGGRQGSHHKQARDSSRHSTSQEGQDTIHGHPGSSSGGRQGSHYEQLVDRSGHSGSHHSHTTSQGRSDASHGHSGSRSASRQTRNDEQSGDGSRHSGSRHHEASSRADSSGHSQVGQGQSEGPRTSRNWGSSFSQDSDSQGHSEDSERWSGSASRNHHGSAQEQLRDGSRHPRSHQEDRAGHGHSADSSRQSGTRHTQTSSGGQAASSHEQARSSAGERHGSHHQQSADSSRHSGIGHGQASSAVRDSGHRGYSGSQASDNEGHSEDSDTQSVSAHGQAGSHQQSHQESARGRSGETSGHSGSFLYQVSTHE
# modifications: left off: a dimerising Fc or GST
# notes: recombinant human filaggrin unit fused with glutathione S-transferase (GST), expressed in E. coli
# How the values were obtained:
# monoclonal antibody AHF4 = assay: Dot-blot of peptides and fil-gst before and after PAD, monoclonal antibody AHF4; format: binding; details: 0.5 μg antigen per deposit, AHF4 0.2 μg/ml
# Description: (§1) These 2 peptides, as well as fil-gst, were citrullinated by the action of PAD, for 30 minutes at 50° C., in the same reaction medium as that indicated in Example 2. The specific conditions for each peptide, and for the fil-gst are the following: • peptide S-47-S (SEQ ID NO:3): 4 mU/μmol arginine • peptide S-35-R (SEQ ID NO:4): 2.7 mU/μmol arginine • fil-gst as indicated in Example 2.
# (§2) The reactivity of each peptide and that of fil-gst, before and after action of the enzyme, towards the monoclonal antibody AHF4, and the serum from a patient suffering from RA, is compared by dot-blot.
# (§3) The operating conditions are the following: • 0.5 μg by deposition of each antigen (peptides, fil-gst, acido-neutral variants of filaggrin (AVF)) • nitrocellulose treatment 45 minutes at 80° C., before immunodetection • RA serum used at the dilution of 1/2000; monoclonal antibody AHF4 used at a concentration of 0.2 μg/ml
# [1] = test system: serum from a patient suffering from RA; assay: Dot-blot of peptides and fil-gst before and after PAD, serum from an RA patient; format: binding, human; details: serum 1/2000
# Description: as §1, §2, §3
# [2] = test system: anti-filaggrin autoantibodies (AFAs); assay: ELISA of citrullinated and noncitrullinated peptides coated on microtiter plates; format: binding, human
# Description: The reactivity of each citrullinated and noncitrullinated peptide was tested respectively in relation to a normal serum, to two sera from RA patients, to anti-filaggrin antibodies (AFAs) purified from a pool of 45 sera from RA patients and to anti-filaggrin antibodies purified from 12 sera from RA patients.
# The wells of NUNC MAXISORP microtiter plates were respectively coated with the aid of the noncitrullinated and citrullinated peptides E-12-D (SEQ ID NO:6) and E-12-H (SEQ ID NO:5), diluted to a concentration of 5 μg/ml in a PBS buffer (pH: 7.4) and incubated overnight at 4° C. (final volume: […]). The wells were saturated for 30 minutes at 37° C. in PBS-Tween 20, 0.05%, 2.5% gelatin, 200 μl/well. The negative control serum (normal serum) was diluted 1/120. The antifilaggrin antibodies were diluted in PBS-Tween 20, 0.05%-0.5% gelatin (PBS TG) such that the final anti-filaggrin autoantibody concentrations are those indicated in the accompanying Table I. The negative control serum, the RA sera and the anti-filaggrin antibodies were added (final volume: 100 μl/well) and incubated for 1 hour at 37° C. and overnight at 4° C. Peroxidase-labeled goat antibodies anti-gamma heavy chains of the human immunoglobulins (marketed by the company SOUTHERN BIOTECHNOLOGIES) were added to each well (dilution in PBSTG: 1/2000, final volume: 100 μl/well) and incubated for 1 hour at 37° C.
# The results presented in the accompanying Table I are given as a ratio of OD at 492 nm: citrullinated peptide signal/noncitrullinated peptide signal.
# [3] = test system: AFAs present in sera from patients suffering from RA; assay: Immunoblot of fil-gst deiminated in vitro by PAD, revealed with a pool of 5 RA sera; format: binding, human; details: for recognition by the sera from patients suffering from RA: pool of 5 RA sera 1/2000
# Description: (§4) The mixture of the 9 fragments is subjected to deimination in vitro by peptidylarginine deiminase.
# (§5) A rabbit muscle peptidylarginine deiminase preparation (681 U/ml) marketed by TAKARA BIOMED EUROPE is used according to the protocol recommended by the manufacturer.
# (§6) The operating conditions are the following: • reaction medium: 0.1 M Tris-HCl, 10 mM CaCl2, 5 mM DTT, pH 7.4; • enzyme/substrate ratio: 140 mU/μmol of filaggrin containing 10% arginine or 4 mU/μmol of arginine; • incubation: between 0 and 60 min at 50° C.; • termination of the reaction: heating 3 min in LAEMMLI buffer.
# (§7) 1 μl of each sample is deposited on an electrophoresis gel (PHAST®-SDS gel 12.5% PHARMACIA), and the electrophoresis is carried out with the PHAST-SYSTEM® apparatus (PHARMACIA), under the conditions recommended by the manufacturer. […] Dermatol. 105, 432, (1995)] at the concentration of 0.2 μg/ml (FIG. 3b).
# The results are illustrated by FIG. 3 • Lane 1: BSA (1 hour, 50° C.) • Lane 2: BSA+PAD (1 hour, 50° C.) • Lane 3: fil-gst (1 hour, […]) • Lane 5: fil-gst+PAD (15 minutes, 50° C.) • Lane 6: fil-gst+PAD (30 minutes, 50° C.) • Lane 7: fil-gst+PAD (1 hour, 50° C.) • Lane 8: fil-gst+PAD+inhibitor (1 hour, 50° C.)
# [4] = test system: anti-filaggrin monoclonal antibody AHF2; assay: Immunoblot of fil-gst deiminated in vitro by PAD, revealed with monoclonal antibody AHF2; format: binding; details: AHF2 0.2 μg/ml
# Description: as §4, §5, §6, §7
# The results are illustrated by FIG. 3 • Lane 1: BSA (1 hour, 50° C.) • Lane 2: BSA+PAD (1 hour, 50° C.) • Lane 3: fil-gst (1 hour, 50° C.) • Lane 4: fil-gst+PAD (15 minutes, 50° C.) • Lane 5: fil-gst+PAD (15 minutes, 50° C.) • Lane 6: fil-gst+PAD (30 minutes, 50° C.) • Lane 7: fil-gst+PAD (1 hour, 50° C.) • Lane 8: fil-gst+PAD+inhibitor (1 hour, 50° C.)
# [5] = citrullinated (PAD 30 minutes at 50° C.)
# [6] = after citrullination (PAD 30 minutes at 50° C.), 0.5 μg antigen per deposit
# [7] = not citrullinated, 0.5 μg antigen per deposit
# [8] = Control serum (normal serum) diluted 1/120
# [9] = Pool of AFAs (purified from 45 RA sera), 5 μg/ml
# [10] = Pool of AFAs (purified from 45 RA sera), 10 μg/ml
# [11] = Pool of AFAs (purified from 45 RA sera), 20 μg/ml
Molecule,recognition by AHF4 (monoclonal antibody AHF4; [5]),recognition by AHF4 (monoclonal antibody AHF4; not citrullinated),"recognition by the serum from the patient suffering from RA [1, 6]","recognition by the serum from the patient suffering from RA [1, 7]","ratio of OD at 492 nm: citrullinated peptide signal/noncitrullinated peptide signal [2, 8]","ratio of OD at 492 nm: citrullinated peptide signal/noncitrullinated peptide signal [2, 9]","ratio of OD at 492 nm: citrullinated peptide signal/noncitrullinated peptide signal [2, 10]","ratio of OD at 492 nm: citrullinated peptide signal/noncitrullinated peptide signal [2, 11]","ratio of OD at 492 nm: citrullinated peptide signal/noncitrullinated peptide signal ([2]; RA1 serum, AFAs 10 μg/ml)","ratio of OD at 492 nm: citrullinated peptide signal/noncitrullinated peptide signal ([2]; RA1 serum, AFAs 20 μg/ml)","ratio of OD at 492 nm: citrullinated peptide signal/noncitrullinated peptide signal ([2]; RA2 serum, AFAs 5 μg/ml)","ratio of OD at 492 nm: citrullinated peptide signal/noncitrullinated peptide signal ([2]; RA2 serum, AFAs 10 μg/ml)","ratio of OD at 492 nm: citrullinated peptide signal/noncitrullinated peptide signal ([2]; RA2 serum, AFAs 20 μg/ml)",also measured
"NH2-SQDRDSQAQSEDSERRSASASRNHRGSAQEQSRDGSR-COOH (H-SQDRDSQAQSEDSERRSASASRNHRGSAQEQSRDGSR-OH; also: citrullinated, positions not given here; listed as Homo sapiens) [Peptide S-35-R, peptide of 37 amino acids, amino acids 155 to 191 of a human filaggrin unit, 7 arginine residues; tested before and after PAD]",does not recognize,does not recognize,not recognized,not recognized,,,,,,,,,,
NH2-EQSADSSRHSGSGH-COOH (H-EQSADSS[Cit]HSGSGH-OH) [Peptide E-12-H],,,,,1,2.45,2.42,1.82,1.32,1.20,10.44,11.51,8.38,
"NH2-STGHSGSQHSHTTTQGRSDASRGSSGSRSTSRETRDQEQSGDGSRHSGS-COOH (H-STGHSGSQHSHTTTQGRSDASRGSSGSRSTSRETRDQEQSGDGSRHSGS-OH; also: citrullinated, positions not given here; listed as Homo sapiens) [Peptide S-47-S, peptide of 49 amino acids, amino acids 71 to 119 of a human filaggrin unit, 6 arginine residues; tested before and after PAD]",recognizes,recognizes,recognized,,,,,,,,,,,
NH2-ESSRDGSRHPRSHD-COOH (H-ESSRDGSRHPRSHD-OH; not fully specified; printed as NH2-ESSRDGSRHPRSHD-COOH) [Peptide E-12-D],,,,,1.076,1.77,1.63,1.48,1.42,1.85,2.42,3.77,5.57,
AVFs: acido-neutral variants of human epidermal filaggrin [reference compound],,,,,,,,,,,,,,"recognition by the serum from the patient suffering from RA ([1]; natural antigen as such, 0.5 μg per deposit): recognizes"
B1,recognizes,recognizes,,does not recognize,,,,,,,,,,"reactivity with the pool of RA sera ([3]; PAD reacted for 60 minutes at 50° C. (lane 7), sera 1/2000): increase in reactivity; recognition by the sera from patients suffering from RA ([3]; absence of citrullination reaction (1 h, 50° C. without PAD, lane 3)): not recognized; recognition by the sera from patients suffering from RA ([3]; from 5 minutes of citrullination with PAD at 50° C. (lane 4)): detected; recognition by monoclonal antibody AHF2 ([4]; citrullinated): recognizes all the fragments; recognition by monoclonal antibody AHF2 ([4]; not citrullinated): recognizes all the fragments"
